“And” between values parts separate entries of the source, which are not always exact repeats. Equal entries are not always repeated.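 Grown in 96-well plates, cells were treated for 48 hours with each compound at five concentrations. Insufficient inhibition: endpoint recorded as highest concentration tested. GI50 marks 50% less growth. At the TGI there is no net growth.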
Experiments:
Experiment in all cases: NCI anticancer screen, dose series, 48 h
[1] = test system: HCC-2998 colon
[2] = test system: UACC-62 melanoma
[3] = test system: 786-0 renal
[4] = test system: OVCAR-5 ovarian
[5] = test system: U251 CNS
[6] = test system: K-562 leukemia
[7] = test system: SNB-75 CNS
[8] = test system: RPMI-8226 leukemia
[9] = test system: HCT-116 colon
[10] = test system: MOLT-4 leukemia

Row | SMILES | GI50 [1] [nM] | TGI [1] [µM] | GI50 [2] [nM] | TGI [2] | GI50 [3] [µM] | TGI [3] | GI50 [4] [nM] | TGI [4] | GI50 [5] [µM] | TGI [5] [µM] | GI50 [6] [nM] | TGI [6] | GI50 [7] [µM] | TGI [7] | GI50 [8] [µM] | TGI [8] | GI50 [9] [nM] | TGI [9] | GI50 [10] [nM] | TGI [10] [µM]
1 | COc1cc(C2=NN(C(C)=O)C(c3cc(OC)c(OC)c(OC)c3)C2)ccc1O (stereo not given) | 539 | > 100 | 471 | > 100 µM | 0.458 | > 100 µM | 6740 | > 100 µM | 0.42 | > 100 | 261 | > 100 µM | 0.26 | > 100 µM | 0.311 | 4.03 µM | 385 | > 73.6 µM | 381 | > 100
2 | CCCCCCNCCCNc1c2cc(OC)ccc2nc2cccc([N+](=O)[O-])c12 | – | 0.0643 | 186 | 0.305 µM and 0.412 µM | 0.205 | 0.368 µM and 0.724 µM | 190 | 0.383 µM and 0.794 µM | 0.0407 | – | 121 | 0.489 µM and 0.352 µM | 0.183 | 0.865 µM and 0.42 µM | 0.0646 | 0.14 µM and 0.348 µM | 38.4 | 0.155 µM and 1.01 µM | 51.4 | –
3 | COc1cccc(CNc2ncnc3c2ncn3C2OC(CO)C(O)C2O)c1O (stereo not given) | 391 | > 38.2 | 347 | > 31.8 µM | 0.27 | > 100 µM | 417 | > 100 µM | 0.522 | > 100 | 311 | > 100 µM | 0.174 | 9.96 µM | 0.319 | > 100 µM | 65.9 | – | 353 | > 44
4 | c1ccc(-c2nc3n(c2-c2ccc4c(c2)OCO4)CCC3)nc1 | 10400 | > 25 | 5310 | 16.2 µM | 3.89 | 24.9 µM | 5030 | > 25 µM | 6.96 | > 25 | 5490 | > 25 µM | 6.42 | > 25 µM | 9.88 | > 25 µM | 8160 | > 25 µM | 6630 | > 21.4
5 | CCCN(CCC)c1ccc(C=O)c(Cl)c1 | 19400 | > 100 | 317 | 1.81 µM | 20 | 53 µM | 432 | 2.33 µM | 6.6 | 29.9 | 26400 | > 100 µM | 16.5 | 55.8 µM | 40.1 | > 100 µM | 2200 | 19 µM | 29600 | 97.1
6 | O=C1/C(=C\c2ccco2)Oc2ccccc21 | – | > 100 | – | > 100 µM | – | > 100 µM | – | > 100 µM | – | > 100 | – | > 100 µM | – | > 100 µM | – | > 100 µM | – | > 100 µM | – | > 100
7 | O=C(c1ccc2ccccc2c1)c1nc2cc(F)ccc2[n+]([O-])c1C(F)(F)F | 15800 | 31.3 | 17000 | 32.6 µM | 31.6 | > 100 µM | 23100 | 48.9 µM | 18.1 | 33.9 | 2800 | 15.4 µM | 17 | 35.9 µM | 20.1 | 53.7 µM | 18400 | 33.1 µM | 22900 | 53.8
8 | CN/N=C(/c1nc2ccc([N+](=O)[O-])cc2[nH]c1=O)C(O)c1ccc(C(O)/C(=N\NC)c2nc3ccc([N+](=O)[O-])cc3[nH]c2=O)cc1 (stereo not given) | – | 95.1 | – | > 100 µM | – | > 100 µM | – | > 100 µM | – | > 100 | – | > 100 µM | – | > 100 µM | – | > 100 µM | – | > 100 µM | – | > 100
9 | COc1cc(F)ccc1-c1cc(Nc2cc(CS(C)(=N)=O)ccn2)ncc1F (stereo not given) | 184 | – | 55.5 | 0.342 µM | 0.0446 | > 47 µM | 48.8 | > 100 µM | 0.0683 | > 100 | 264 | > 100 µM | 0.0663 | 0.433 µM | 0.11 | 0.662 µM | 29.3 | > 100 µM | 111 | 0.985
10 | Cn1cc(-c2cc(-c3cn(C)c4ccc(Cl)cc34)[nH]n2)c2cc(Cl)ccc21 | 1710 | 3.84 | 1630 | 3.35 µM | 3.41 | 11.4 µM | 3110 | 13 µM | 3.37 | 12.9 | 2780 | 5.98 µM | 4.25 | 30.6 µM | 6.79 | > 100 µM | 3820 | 15.8 µM | 1550 | 11.8
11 | CCOc1ccc(N=C(NC(=O)c2ccccc2)SC)cc1 | – | > 100 | – | > 100 µM | – | > 100 µM | – | > 100 µM | – | > 100 | – | > 100 µM | – | > 100 µM | – | > 100 µM | – | > 100 µM | – | > 100
12 | COc1ccc(-c2c(C#N)c(N)nc(N3CCOCC3)c2C#N)cc1 | 13000 | 31.6 | 14600 | 74.7 µM | 20.7 | 76.6 µM | 13900 | 59.9 µM | 27.4 | > 100 | 34500 | > 100 µM | 13.5 | 60.7 µM | 16.1 | 58.7 µM | 17700 | 65.2 µM | 27700 | > 100
13 | COc1ccc(/C=C2\CCC(CCN(C)C)(C3=CCCC3)C2=O)cc1 (stereo not given) | – | 32.9 | – | 30.3 µM | – | 28.7 µM | – | 47.6 µM | – | 30.4 | – | 41.8 µM | – | 55.2 µM | – | 48.7 µM | – | 29.1 µM | – | 51
14 | CCSc1ccc([C@@H]2[C@@H](O)C(=O)N2c2cc(OC)c(OC)c(OC)c2)cc1 | 48.9 | 17.4 | < 10 | 20.1 µM | < 0.016 | 29 µM | 52.6 | > 100 µM | < 0.0144 | 16 | < 10 | > 69.9 µM | < 0.011 | 65.1 µM | 0.0279 | 12 µM | < 11 | 3.06 µM | 38.4 | 17.7
15 | COC(=O)c1cc(=O)nc2cc3cccccc3n12 | – | > 100 | – | > 100 µM | – | > 100 µM | – | > 100 µM | – | > 100 | – | > 100 µM | – | > 100 µM | – | > 100 µM | – | > 100 µM | – | > 100
16 | C1=Cc2nc1c(-c1ccccc1)c1ccc([nH]1)c(-c1ccccc1)c1nc(c(-c3ccccc3)c3ccc([nH]3)c2-c2ccccc2)C=C1 | – | > 100 | – | > 100 µM | – | > 100 µM | – | > 100 µM | – | > 100 | – | > 100 µM | – | > 100 µM | – | > 100 µM | – | > 100 µM | – | > 100
17 | CN(C)c1ccc(/C=C(\NC(=O)c2ccccc2)c2nc3ccc4c(c3[nH]2)C(=O)c2ccccc2C4=O)cc1 | – | > 100 | – | > 100 µM | – | > 100 µM | – | > 100 µM | – | > 100 | – | > 100 µM | – | 64.2 µM | – | > 100 µM | – | > 100 µM | – | 31.3
18 | CCCCCCC(O)CC[C@H]1CCC[C@@H](C)N1 (stereo not given in full) | – | > 100 | – | > 100 µM | – | < 10 µM | – | < 10 µM | – | > 31.6 | – | > 100 µM | – | > 31.6 µM | – | > 100 µM | – | > 100 µM | – | > 100
19 | COC/N=C(\NC#N)NCOC | – | > 100 | – | > 100 µM | – | > 74.6 µM | – | > 100 µM | – | > 100 | – | > 100 µM | – | > 100 µM | – | > 70.8 µM | – | > 100 µM | – | > 100

Source: PubChem BioAssay (NCI)
